Consider 8 molecules from ChEMBL document CHEMBL5634099, “Pyrrole-thiazolidinone hybrids as a new structural class of broad-spectrum anti-infectives” (Eur J Med Chem, 2023).

Converted amounts (≈) assume the structure as drawn.

What all share (assay type): functional
For one experiment, the system named is Mycobacteroides chelonae. Briefly: Antimycobacterial activity against Mycobacteroides chelonae ATCC 35752 assessed as bacterial growth inhibition incubated for 7 days by resazurin dye based assay. As to conditions: ATCC 35752, 168 h, time 7 day. (In general: The colour change of resazurin is a common sign of viable cells or microbes.)
In another experiment the test system is Escherichia coli. Briefly: Antibacterial activity against Escherichia coli ATCC 25922 assessed as bacterial growth inhibition incubated for 16 to 18 hrs by CLSI based susceptibility testing method. As to conditions: time 16-18 hrs.
Experiment [1] relates to Mycobacteroides abscessus. Briefly: Antimycobacterial activity against Mycobacterium abscessus ATCC 19977 assessed as bacterial growth inhibition incubated for 7 days by resazurin dye based assay. Conditions: ATCC 19977, 168 h, time 7 day.
A further experiment has as its system Staphylococcus aureus. Put plainly: Antibacterial activity against Staphylococcus aureus ATCC 29213 assessed as bacterial growth inhibition incubated for 16 to 18 hrs by CLSI based susceptibility testing method. As to conditions: time 16-18 hrs.
In a further experiment the test system is Pseudomonas aeruginosa. Briefly: Antibacterial activity against Pseudomonas aeruginosa ATCC 27853 assessed as bacterial growth inhibition incubated for 16 to 18 hrs by CLSI based susceptibility testing method. Conditions: time 16-18 hrs.
The subject of experiment [2] is Mycobacterium tuberculosis. Put plainly: Antimycobacterial activity against Mycobacterium tuberculosis H37Rv ATCC 27294 assessed as bacterial growth inhibition incubated for 7 days by resazurin dye based assay. Conditions: H37Rv ATCC 27294, 168 h, time 7 day.
The subject of experiment [3] is Mycolicibacterium fortuitum. Put plainly: Antimycobacterial activity against Mycobacterium fortuitum ATCC 6841 assessed as bacterial growth inhibition incubated for 7 days by resazurin dye based assay. Conditions: ATCC 6841, 168 h, time 7 day.
The subject of another experiment is Klebsiella pneumoniae. Put plainly: Antibacterial activity against Klebsiella pneumoniae BAA 1705 assessed as bacterial growth inhibition incubated for 16 to 18 hrs by CLSI based susceptibility testing method. Conditions: time 16-18 hrs.
For a further experiment, the system named is Acinetobacter baumannii. Put plainly: Antibacterial activity against Acinetobacter baumannii BAA 1605 assessed as bacterial growth inhibition incubated for 16 to 18 hrs by CLSI based susceptibility testing method. Conditions: time 16-18 hrs.

As usually defined, the MIC is the lowest concentration that inhibits growth of the organism. As for `Cc1nc(/N=C2\NC(=O)/C(=C/c3cc(C)n(-c4cccc(Cl)c4)c3C)S2)sc1C`, the minimal inhibitory concentration (MIC) in the experiment on Mycobacteroides chelonae is above 64 µg/mL; in the experiment on Escherichia coli, above 64 µg/mL; in experiment [1], above 64 µg/mL; with Staphylococcus aureus, above 64 µg/mL; in the experiment with Pseudomonas aeruginosa, above 64 µg/mL; in experiment [2] it was 4 µg/mL (≈ 9.03 µM). For the same molecule, the minimal inhibitory concentration (MIC) (in experiment [3]; with Klebsiella pneumoniae; in the experiment with Acinetobacter baumannii) was above 64 µg/mL in each case.
On to `Cc1nc(/N=C2\NC(=O)/C(=C/c3cc(C)n(-c4ccc([N+](=O)[O-])cc4)c3C)S2)sc1C`, for which the minimum inhibitory concentration (MIC) (with Mycobacteroides chelonae; in the experiment on Escherichia coli; in experiment [1]; in the experiment on Staphylococcus aureus; with Pseudomonas aeruginosa; in [2]) was above 64 µg/mL throughout. Also, the minimum inhibitory concentration (MIC) (in experiment [3]; in the experiment with Klebsiella pneumoniae; in the experiment with Acinetobacter baumannii) was above 64 µg/mL throughout.
Take `Cc1nc(/N=C2\NC(=O)/C(=C/c3cc(C)n(-c4ccc(Cl)cc4)c3C)S2)sc1C`: the minimum inhibitory concentration (MIC) (in the experiment with Mycobacteroides chelonae; in the experiment on Escherichia coli; in experiment [1]; with Staphylococcus aureus; in the experiment on Pseudomonas aeruginosa; in experiment [2]) was above 64 µg/mL in each case. Further, the minimal inhibitory concentration (MIC) (in experiment [3]; with Klebsiella pneumoniae; in the experiment with Acinetobacter baumannii) was above 64 µg/mL in each case.
With `Cc1ccc(-n2c(C)cc(/C=C3\S/C(=N/c4nc(C)c(C)s4)NC3=O)c2C)cc1`, the minimal inhibitory concentration (MIC) (in the experiment with Mycobacteroides chelonae; in the experiment on Escherichia coli; in [1]; in the experiment on Staphylococcus aureus; with Pseudomonas aeruginosa; in [2]) was above 64 µg/mL throughout. Besides, the MIC (in experiment [3]; in the experiment on Klebsiella pneumoniae; with Acinetobacter baumannii) was above 64 µg/mL each time.
Regarding `Cc1nc(/N=C2\NC(=O)/C(=C/c3cc(C)n(-c4ccccc4Br)c3C)S2)sc1C`, the minimum inhibitory concentration (MIC) in the experiment with Mycobacteroides chelonae is above 64 µg/mL; with Escherichia coli, above 64 µg/mL; in experiment [1], above 64 µg/mL; with Staphylococcus aureus, above 64 µg/mL; with Pseudomonas aeruginosa, above 64 µg/mL; in [2] it was 4 µg/mL (≈ 8.21 µM). In addition, the MIC (in experiment [3]; in the experiment with Klebsiella pneumoniae; in the experiment with Acinetobacter baumannii) was above 64 µg/mL each time.
As for `Cc1nc(/N=C2\NC(=O)/C(=C/c3cc(C)n(-c4ccc([N+](=O)[O-])c(C(F)(F)F)c4)c3C)S2)sc1C`, the MIC with Mycobacteroides chelonae was above 64 µg/mL; in the experiment with Escherichia coli it was above 64 µg/mL; in experiment [1], above 64 µg/mL; in the experiment on Staphylococcus aureus, 16 µg/mL (≈ 30.7 µM); in the experiment on Pseudomonas aeruginosa it was above 64 µg/mL; in experiment [2], above 64 µg/mL. Moreover, the MIC (in experiment [3]; in the experiment on Klebsiella pneumoniae; in the experiment on Acinetobacter baumannii) was above 64 µg/mL throughout.
For `Cc1nc(/N=C2\NC(=O)/C(=C/c3cc(C)n(-c4cc(Cl)ccc4O)c3C)S2)sc1C`, the MIC with Mycobacteroides chelonae is above 64 µg/mL; in the experiment with Escherichia coli, above 64 µg/mL; in experiment [1], above 64 µg/mL; with Staphylococcus aureus, 64 µg/mL (≈ 139 µM); in the experiment with Pseudomonas aeruginosa, above 64 µg/mL; in experiment [2], above 64 µg/mL. Besides, the MIC (in experiment [3]; in the experiment on Klebsiella pneumoniae; with Acinetobacter baumannii) was above 64 µg/mL in each case.
`COc1ccc(-n2c(C)cc(/C=C3\S/C(=N/c4nc(C)c(C)s4)NC3=O)c2C)cc1OC`: the MIC in the experiment with Mycobacteroides chelonae was above 64 µg/mL; in the experiment on Escherichia coli it was above 64 µg/mL; in experiment [1] it was above 64 µg/mL; in the experiment on Staphylococcus aureus, 64 µg/mL (≈ 137 µM); in the experiment with Pseudomonas aeruginosa it was above 64 µg/mL; in experiment [2] it was above 64 µg/mL. Moreover, the minimal inhibitory concentration (MIC) (in experiment [3]; with Klebsiella pneumoniae; in the experiment with Acinetobacter baumannii) was above 64 µg/mL each time.
